In patent publication US10472356B2, “Bicyclic ketone sulfonamide compounds” (AMGEN INC., priority 2015, dated 2019):

How the values were obtained:
[1] = biological target: T1, human Nav1.7 (Homo sapiens, UniProt Q15858); assay: Nav 1.7 IWB In Vitro Assay (IonWorks Barracuda); assay type: cell-based; details: HEK293 cells stably transfected with human Nav 1.7; IonWorks Barracuda population patch-clamp; cells clamped to −20 mV for 4 minutes with compound; 26th pulse; read-out: hNav1.7 IWB IC50
T1 construct: expressed in transfected cells; host or cells: HEK293
T1 sequence (Q15858 whole entry): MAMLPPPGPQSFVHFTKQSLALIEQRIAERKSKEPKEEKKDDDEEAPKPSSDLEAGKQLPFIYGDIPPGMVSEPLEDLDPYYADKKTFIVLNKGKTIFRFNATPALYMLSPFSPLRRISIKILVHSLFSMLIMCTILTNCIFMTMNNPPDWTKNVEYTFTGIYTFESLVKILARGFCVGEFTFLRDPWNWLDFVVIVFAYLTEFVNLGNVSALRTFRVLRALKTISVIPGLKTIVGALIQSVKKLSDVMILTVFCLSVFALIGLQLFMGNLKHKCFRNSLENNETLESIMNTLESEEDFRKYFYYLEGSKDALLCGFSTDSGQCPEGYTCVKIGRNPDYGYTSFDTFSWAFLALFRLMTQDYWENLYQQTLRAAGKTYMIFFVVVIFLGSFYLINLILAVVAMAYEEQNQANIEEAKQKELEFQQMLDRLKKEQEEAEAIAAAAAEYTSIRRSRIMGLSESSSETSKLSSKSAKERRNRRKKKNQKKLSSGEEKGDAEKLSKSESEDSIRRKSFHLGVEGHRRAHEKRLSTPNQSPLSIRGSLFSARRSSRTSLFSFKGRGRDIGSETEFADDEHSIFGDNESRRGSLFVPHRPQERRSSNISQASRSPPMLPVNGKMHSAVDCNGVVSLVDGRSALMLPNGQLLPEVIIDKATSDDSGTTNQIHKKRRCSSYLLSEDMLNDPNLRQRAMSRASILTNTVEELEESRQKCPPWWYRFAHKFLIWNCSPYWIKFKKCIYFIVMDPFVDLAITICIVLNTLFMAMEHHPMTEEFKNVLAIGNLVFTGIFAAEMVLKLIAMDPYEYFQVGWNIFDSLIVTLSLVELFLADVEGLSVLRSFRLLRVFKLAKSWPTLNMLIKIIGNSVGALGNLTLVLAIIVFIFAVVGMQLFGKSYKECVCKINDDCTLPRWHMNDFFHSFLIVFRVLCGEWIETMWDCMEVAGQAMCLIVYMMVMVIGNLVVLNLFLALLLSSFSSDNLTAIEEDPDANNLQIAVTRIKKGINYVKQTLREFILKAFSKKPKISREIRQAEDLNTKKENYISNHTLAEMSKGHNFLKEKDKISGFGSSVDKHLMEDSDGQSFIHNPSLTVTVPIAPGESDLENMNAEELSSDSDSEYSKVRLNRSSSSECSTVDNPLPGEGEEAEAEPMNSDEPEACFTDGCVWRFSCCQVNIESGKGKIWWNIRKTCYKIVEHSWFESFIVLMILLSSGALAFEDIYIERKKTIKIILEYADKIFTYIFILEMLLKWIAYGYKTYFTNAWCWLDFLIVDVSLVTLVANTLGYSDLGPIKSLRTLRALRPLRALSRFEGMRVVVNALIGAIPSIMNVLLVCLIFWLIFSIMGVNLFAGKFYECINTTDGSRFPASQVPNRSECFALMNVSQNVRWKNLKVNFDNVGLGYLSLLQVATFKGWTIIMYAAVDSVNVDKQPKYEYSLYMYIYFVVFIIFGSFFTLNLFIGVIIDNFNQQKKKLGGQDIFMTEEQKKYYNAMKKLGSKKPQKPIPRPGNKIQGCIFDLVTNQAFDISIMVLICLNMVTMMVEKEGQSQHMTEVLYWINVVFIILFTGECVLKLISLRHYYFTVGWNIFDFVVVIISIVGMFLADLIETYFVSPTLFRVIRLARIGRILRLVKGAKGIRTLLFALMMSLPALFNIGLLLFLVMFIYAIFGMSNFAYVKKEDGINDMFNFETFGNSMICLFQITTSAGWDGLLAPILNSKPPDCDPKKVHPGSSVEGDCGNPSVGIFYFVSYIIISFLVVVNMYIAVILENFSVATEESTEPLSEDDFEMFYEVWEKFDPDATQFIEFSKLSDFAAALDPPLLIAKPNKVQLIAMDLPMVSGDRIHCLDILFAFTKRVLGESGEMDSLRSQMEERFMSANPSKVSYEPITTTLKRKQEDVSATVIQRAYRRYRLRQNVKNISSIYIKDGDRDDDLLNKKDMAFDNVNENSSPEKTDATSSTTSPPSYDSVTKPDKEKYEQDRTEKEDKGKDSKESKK
Method: Nav 1.7 IWB In Vitro Assay
HEK293 cells stably transfected with human Nav 1.7 were recorded in population patch-clamp mode with the IonWorks© Barracuda (IWB) automated electrophysiology system (Molecular Devices, LLC, Sunnyvale, Calif.). From a holding potential of −110 mV, sodium currents were elicited by a train of 26 depolarizations of 150 ms duration to −20 mV at a frequency of 5 Hz. Cells were then clamped to −20 mV for a period of 4 minutes in the presence of a single concentration of test compound. Following this compound incubation period, cells were clamped to −110 mV for three seconds to recover unbound channels and put through the same 26 pulse voltage protocol as above. Peak inward current during the 26th pulse to −20 mV in the presence of compound was divided by the peak inward current evoked by the 26th pulse to −20 mV in the absence of compound to determine percent inhibition. Concentration-response curves of percent inhibition as a function of concentration were generated to calculate IC50 values.

[2] = biological target: T1, human Nav1.7; assay: Nav 1.7 In Vitro PatchXpress (PX) Assay; assay type: cell-based; details: HEK 293 cells stably transfected with human Nav1.7; PatchXpress whole cell voltage clamp; partially inactivated state (holding potential yielding 20 to 50% inactivation); read-out: hNav1.7 PX IC50
Method: Nav 1.7 In Vitro PatchXpress (PX) Assay
HEK 293 cells stably transfected with human Nav1.7 were recorded in whole cell voltage clamp mode with the PatchXpress automated electrophysiology system (Molecular Devices, LLC, Sunnyvale, Calif.). Compound effects were measured on a partially inactivated state of the sodium channel. Cells were clamped to a holding potential yielding 20 to 50% inactivation. To elicit sodium current, channels were activated by pulsing to −10 mV for 20 msec. This voltage protocol was repeated at a rate of 0.1 Hz throughout the experiment. A single concentration of test compound was applied to cells for a duration of 3 minutes. Peak sodium current was measured at the end of the compound addition period to determine percent inhibition. Three to five cells were tested per concentration, and IC50 curves were fitted to percent inhibition as a function of concentration.

COc1cc(-c2cc(F)cc(Cl)c2)c(F)cc1-n1c2c(ccc1=O)CN(S(=O)(=O)Nc1cc(C)ncn1)CC2 (racemic) [4-(Rac), (Rac)-1-(3′-chloro-2,5′-difluoro-5-methoxy-4-biphenylyl)-N-(6-methyl-4-pyrimidinyl)-2-oxo-1,5,7,8-tetrahydro-1,6-naphthyridine-6(2H)-sulfonamide]
IC50 [1]: 45.9 nM
IC50 [2]: 386 nM

COc1cc(-c2cc(F)cc(Cl)c2)c(F)cc1-n1c2c(ccc1=O)CN(S(=O)(=O)Nc1ccnc(C)n1)CC2 (racemic) [6-(Rac), (Rac)-1-(3′-chloro-2,5′-difluoro-5-methoxy-4-biphenylyl)-N-(2-methyl-4-pyrimidinyl)-2-oxo-1,5,7,8-tetrahydro-1,6-naphthyridine-6(2H)-sulfonamide]
IC50 [1]: 101 nM
IC50 [2]: 666 nM

COc1cc(-c2cc(F)cc(Cl)c2)ccc1-n1c2c(ccc1=O)CN(S(=O)(=O)Nc1ccon1)CC2 (racemic) [7-(Rac), (Rac)-1-(3′-chloro-5′-fluoro-3-methoxy-4-biphenylyl)-N-3-isoxazolyl-2-oxo-1,5,7,8-tetrahydro-1,6-naphthyridine-6(2H)-sulfonamide]
IC50 [1]: 16.7 nM
IC50 [2]: 254 nM

COc1cc(-c2cc(F)cc(Cl)c2)ccc1-n1c2c(ccc1=O)CN(S(=O)(=O)Nc1cccnn1)CC2 (racemic) [8-(Rac), (Rac)-1-(3′-chloro-5′-fluoro-3-methoxy-4-biphenylyl)-2-oxo-N-3-pyridazinyl-1,5,7,8-tetrahydro-1,6-naphthyridine-6(2H)-sulfonamide]
IC50 [1]: 31.7 nM
IC50 [2]: 350 nM

COc1cc(-c2cc(F)cc(F)c2)c(F)cc1-n1c2c(ccc1=O)CN(S(=O)(=O)Nc1ncc(F)cn1)CC2 (racemic) [Example 10-(Rac), (Rac)-N-(5-fluoro-2-pyrimidinyl)-2-oxo-1-(2,3′,5′-trifluoro-5-methoxy-4-biphenylyl)-1,5,7,8-tetrahydro-1,6-naphthyridine-6(2H)-sulfonamide]
IC50 [1]: 163 nM
IC50 [2]: 2280 nM

COc1cc(-c2cc(F)cc(Cl)c2)c(F)cc1-n1c2c(ccc1=O)CN(S(=O)(=O)Nc1ccccn1)CC2 (racemic) [Example 11-(Rac), (Rac)-1-(3′-chloro-2,5′-difluoro-5-methoxy-4-biphenylyl)-2-oxo-N-2-pyridinyl-1,5,7,8-tetrahydro-1,6-naphthyridine-6(2H)-sulfonamide]
IC50 [1]: 60.9 nM
IC50 [2]: 371 nM

COc1cc(-c2cc(F)cc(Cl)c2)c(F)cc1-n1c2c(ccc1=O)CN(S(=O)(=O)Nc1ccc(F)cn1)CC2 (single isomer, unassigned) [Example 12-M, M-1-(3′-chloro-2,5′-difluoro-5-methoxy-4-biphenylyl)-N-(5-fluoro-2-pyridinyl)-2-oxo-1,5,7,8-tetrahydro-1,6-naphthyridine-6(2H)-sulfonamide]
IC50 [2]: 9340 nM

COc1cc(-c2cc(F)cc(F)c2)c(F)cc1-n1c2c(ccc1=O)CN(S(=O)(=O)Nc1ncon1)CC2 (single isomer, unassigned) [Example 17-P, P-N-1,2,4-oxadiazol-3-yl-2-oxo-1-(2,3′,5′-trifluoro-5-methoxy-4-biphenylyl)-1,5,7,8-tetrahydro-1,6-naphthyridine-6(2H)-sulfonamide]
IC50 [2]: > 1000 nM

COc1cc(-c2cc(F)cc(F)c2)c(F)cc1-n1c2c(ccc1=O)CN(S(=O)(=O)Nc1ccon1)CC2 (single isomer, unassigned) [Example 25-M, M-N-3-isoxazolyl-2-oxo-1-(2,3′,5′-trifluoro-5-methoxy-4-biphenylyl)-1,5,7,8-tetrahydro-1,6-naphthyridine-6(2H)-sulfonamide]
IC50 [2]: > 1000 nM

COc1cc(C(F)(F)F)ccc1-n1c2c(ccc1=O)CN(S(=O)(=O)Nc1ccon1)CC2 (single isomer, unassigned) [Example 26-M, M-N-3-isoxazolyl-1-(2-methoxy-4-(trifluoromethyl)phenyl)-2-oxo-1,5,7,8-tetrahydro-1,6-naphthyridine-6(2H)-sulfonamide]
IC50 [2]: > 1000 nM

COc1cc(C(F)(F)F)ccc1-n1c2c(ccc1=O)CN(S(=O)(=O)Nc1ccon1)CC2 (single isomer, unassigned) [Example 26-P, P-N-3-isoxazolyl-1-(2-methoxy-4-(trifluoromethyl)phenyl)-2-oxo-1,5,7,8-tetrahydro-1,6-naphthyridine-6(2H)-sulfonamide]
IC50 [2]: > 1000 nM

COc1ccc(-c2ccc(C)c(Cl)c2)cc1-n1c2c(ccc1=O)CN(S(=O)(=O)Nc1cccnn1)CC2 (single isomer, unassigned) [Example 55-M, M-1-(3′-chloro-4-methoxy-4′-methyl-3-biphenylyl)-2-oxo-N-3-pyridazinyl-1,5,7,8-tetrahydro-1,6-naphthyridine-6(2H)-sulfonamide]
IC50 [2]: > 1000 nM

COc1ccc(-c2ccc(C)c(Cl)c2)cc1-n1c2c(ccc1=O)CN(S(=O)(=O)Nc1cccnn1)CC2 (single isomer, unassigned) [Example 55-P, P-1-(3′-chloro-4-methoxy-4′-methyl-3-biphenylyl)-2-oxo-N-3-pyridazinyl-1,5,7,8-tetrahydro-1,6-naphthyridine-6(2H)-sulfonamide]
IC50 [2]: 710 nM

COc1cc(-c2ccc(Cl)c(C)c2)c(F)cc1-n1c2c(ccc1=O)CN(S(=O)(=O)Nc1ccncn1)CC2 [Example 1-P, P-1-(4′-chloro-2-fluoro-5-methoxy-3′-methyl-4-biphenylyl)-2-oxo-N-4-pyrimidinyl-1,5,7,8-tetrahydro-1,6-naphthyridine-6(2H)-sulfonamide]
IC50 [2]: 29.6 nM

COc1cc(-c2ccc(C)c(Cl)c2)c(F)cc1-n1c2c(ccc1=O)CN(S(=O)(=O)Nc1cccnn1)CC2 [Example 44, P-1-(3′-chloro-2-fluoro-5-methoxy-4′-methyl-4-biphenylyl)-2-oxo-N-3-pyridazinyl-1,5,7,8-tetrahydro-1,6-naphthyridine-6(2H)-sulfonamide]
IC50 [2]: 73.2 nM

COc1cc(-c2cccc(C(F)(F)F)c2)c(F)cc1-n1c2c(ccc1=O)CN(S(=O)(=O)Nc1cccnn1)CC2 [Example 45, P-1-(2-fluoro-5-methoxy-3′-(trifluoromethyl)-4-biphenylyl)-2-oxo-N-3-pyridazinyl-1,5,7,8-tetrahydro-1,6-naphthyridine-6(2H)-sulfonamide]
IC50 [2]: 29.8 nM

COc1cc(-c2cc(F)c(F)c(F)c2)c(F)cc1-n1c2c(ccc1=O)CN(S(=O)(=O)Nc1cccnn1)CC2 [Example 46, P-2-oxo-N-3-pyridazinyl-1-(2,3′,4′,5′-tetrafluoro-5-methoxy-4-biphenylyl)-1,5,7,8-tetrahydro-1,6-naphthyridine-6(2H)-sulfonamide]
IC50 [2]: 102 nM

COc1cc(-c2ccc(Cl)c(F)c2)c(F)cc1-n1c2c(ccc1=O)CN(S(=O)(=O)Nc1cccnn1)CC2 [Example 47, P-1-(4′-chloro-2,3′-difluoro-5-methoxy-4-biphenylyl)-2-oxo-N-3-pyridazinyl-1,5,7,8-tetrahydro-1,6-naphthyridine-6(2H)-sulfonamide]
IC50 [2]: 95.1 nM

COc1cc(-c2ccc(F)c(Cl)c2)c(F)cc1-n1c2c(ccc1=O)CN(S(=O)(=O)Nc1cccnn1)CC2 [Example 48, P-1-(3′-chloro-2,4′-difluoro-5-methoxy-4-biphenylyl)-2-oxo-N-3-pyridazinyl-1,5,7,8-tetrahydro-1,6-naphthyridine-6(2H)-sulfonamide]
IC50 [2]: 80.3 nM

COc1cc(-c2cccc(Cl)c2F)c(F)cc1-n1c2c(ccc1=O)CN(S(=O)(=O)Nc1cccnn1)CC2 [Example 49, P-1-(3′-chloro-2,2′-difluoro-5-methoxy-4-biphenylyl)-2-oxo-N-3-pyridazinyl-1,5,7,8-tetrahydro-1,6-naphthyridine-6(2H)-sulfonamide]
IC50 [2]: 168 nM

COc1cc(-c2cnc(OC)c(Cl)c2)c(F)cc1-n1c2c(ccc1=O)CN(S(=O)(=O)Nc1cccnn1)CC2 [Example 50, P-1-(4-(5-chloro-6-methoxy-3-pyridinyl)-5-fluoro-2-methoxyphenyl)-2-oxo-N-3-pyridazinyl-1,5,7,8-tetrahydro-1,6-naphthyridine-6(2H)-sulfonamide]
IC50 [2]: 172 nM

COc1ccc(-c2ccc(Cl)c(C)c2)cc1-n1c2c(ccc1=O)CN(S(=O)(=O)Nc1cccnn1)CC2 [Example 56-P, P-1-(4′-chloro-4-methoxy-3′-methyl-3-biphenylyl)-2-oxo-N-3-pyridazinyl-1,5,7,8-tetrahydro-1,6-naphthyridine-6(2H)-sulfonamide]
IC50 [2]: 493 nM

COc1ccc(-c2cccc(Cl)c2C)cc1-n1c2c(ccc1=O)CN(S(=O)(=O)Nc1cccnn1)CC2 [Example 57-P, P-1-(3′-chloro-4-methoxy-2′-methyl-3-biphenylyl)-2-oxo-N-3-pyridazinyl-1,5,7,8-tetrahydro-1,6-naphthyridine-6(2H)-sulfonamide]
IC50 [2]: 232 nM
